# Experiments:
# [1] = system: J774.1a macrophage cells; assay: Macrophage TNF-α NO assay (Assay 3), Griess reagent; type: cell-based; settings: 10 μg/ml test compound, LPS, supernatants after 24 hr; note: key: a ‘+’ indicates a positive result for desired activity; a ‘−’ indicates a negative result for desired activity
# Summary of the method: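 J774.1a macrophages pretreated 40 min with 10 μg/mL compound, then LPS (100 ng/mL for TNF-α); TNF-α by ELISA in supernatants at 2 and 5 h, NO by Griess at 24 h. Mast cells IgE-loaded (anti-DNP), compound 30 min, DNP-HSA challenge; calcium flux by fura-2 spectrofluorometry, signalling by immunoblot.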
# [2] = system: MM cell lines; assay: In vitro Multiple Myeloma (MM) assay (Assay 7); type: cell-based; settings: for Assay 7: In vitro Multiple Myeloma (MM) assay, desired activity: viable cell number by trypan blue, [3H]-thymidine; for Assay 7: In vitro Multiple Myeloma (MM) assay, desired activity: key: a ‘+’ indicates a positive result for desired activity; a ‘−’ indicates a negative result for desired activity
# Procedure: Assay 1) In vitro testing in a SHIP enzyme assay. Test compounds were dissolved in a suitable solvent (e.g. EtOH, DMSO and others) and diluted into aqueous buffer (20 mM Tris HCl, pH 7.5 and 10 mM MgCl2). SHIP enzyme assays were performed in 96-well microtitre plates with 10 ng of enzyme/well in a total volume of 25 μL of 20 mM Tris HCl, pH 7.5 and 10 mM MgCl2. SHIP enzyme was incubated with test extracts (provided in solvent) or vehicle for 15 min at 23° C. before the addition of 100 μM inositol-1,3,4,5-tetrakisphosphate (Echelon Biosciences Inc, Salt Lake City, Utah). After 20 min at 37° C. and the amount of inorganic phosphate released assessed by the addition of Malachite Green reagent and absorbance measurement at 650 nm. Assay 2) Macrophage TNF-α production. J774.1a macrophage cells were treated with 10 μg/mL of test compound dissolved in solvent (e.g. cyclodextran) for 40 minutes prior to the addition of 100 ng/mL LPS. Culture supernatants were collected after 2 hr and 5 hr for TNF-α determination by ELISA. Assay 3) Macrophage TNF-α NO assay. J774.1a macrophage cells were treated with 10 μg/ml of test compound dissolved in solvent for 40 minutes prior to the addition of LPS. Culture supernatants were collected after 24 hr. for determination of NO concentration using the Griess reagent. Assay 4) Stimulation of mast cells by FcεRI crosslinking. Mast cells were pre-loaded overnight in BMMC medium lacking IL-3 with 0.1 μg/ml anti-DNP IgE (SPE-7, Sigma, Oakville, Ont). For calcium flux measurements, cells were incubated with 2 μM fura 2-acetoxymethyl ester (Molecular Probes, Eugene, Oreg.) in Tyrode's buffer at 23° C. for 45 min. Cells were then washed and incubated in the presence of the test compound 30 min prior to stimulation with the indicated concentration of DNP-human serum albumin (DNP-HSA). Calcium influx was monitored by spectrofluorometry as described previously. For analysis of intracellular signaling, cells were pre-loaded with anti-DNP IgE as above, pre-treated with the test compound for 30 min at 37° C. and stimulated with 20 ng/ml DNP-HSA for 5 min. Total cell lysates were then prepared and analyzed for phospho-PKB, phospho-p38^MAPK, phospho-MAPK, Grb-2 (Cell Signalling, Mississauga, Ont) and SHIP^6 by immunoblot analysis. Assay 5) Mouse acute cutaneous anaphylaxis model. 6-8 week old CD1 mice (University of British Columbia Animal Facility, Vancouver, BC) were sensitized to the hapten DNP by cutaneous application of 25 μL of 0.5% dinitrofluorobenzene (DNFB) (Sigma, Oakville, Ont) in acetone to the shaved abdomen of mice for two consecutive days. 24 hrs later, test substances (dissolved in 10 μL of 1:2 DMSO:MeOH) were painted on the right ear while the left ear received vehicle control. 30 min after drug application, DNFB was applied to both ears to induce mast cell degranulation. A 6 mm punch was taken from the ear and immediately frozen on dry ice for subsequent determination of neutrophil myeloperoxidase (MPO) activity. Assay 6) Mouse endotoxemia model. 6-8 week old C57B16 mice (VCHRI Mammalian Model of Human Disease Core Facility, Vancouver, BC) were orally administered the test compound 30 min prior to an IP injection of 2 mg/kg of LPS (E. Coli serotype 0111:B4, Sigma, Oakville, Ont). Blood was drawn 2 hrs later for determination of plasma TNFα by ELISA. Assay 7) In vitro Mulitple Myeloma (MM) assay. The ability of SHIP activators to reduce tumor cell survival was assessed in MM cell lines treated with the test compound. The lines OPM1, OPM2, MM.1S and RPMI 8226 were plated at a density of 1×10^5 cells/mL in 200 μL of medium with various concentrations of the test compound, and viable cell numbers were determined on day 3 and day 5 by trypan blue exclusion. The lines RPMI 8226 and U266 were plated at a density of 1×10^6 cells/mL in 250 μL of medium with various concentrations of the test compound. At day 4, the medium of each culture was replaced by fresh medium containing the same concentration of test compound. […]
# [3] = system: luciferase expressing OPM2 cells; assay: In vivo Multiple Myeloma (MM) assay (Assay 8), OPM2 xenograft; design: species or system mice; settings: 50 mg/kg every 3 days, subcutaneous oil depot
# Procedure: Assay 8) In vivo Multiple Myeloma (MM) assay. Mice were inoculated with at two sites each with 3×10^6 luciferase expressing OPM2 cells suspended in 50 μL of growth medium and 50 μL of Matrigel basement membrane matrix (Becton Dickenson; Bedford, Mass.). Tumors were injected subcutaneously in the upper and lower flanks of the mice and allowed to establish for 2 weeks. After 2 weeks, a test compound or control vehicle was administered in a subcutaneous oil depot at a dose of 50 mg/kg every 3 days.
# Tumors were measured using bioluminescence imaging on the Xenogen IVIS 200. Mice received intra-peritoneal injections of 200 μL of D-luciferin at 3.75 mg/mL in sterile PBS. Mice were then anesthetized with isofluorane and imaged 15 minutes post-injection of luciferin. Quantification of tumor size was performed using the Living Image™ software.
# MM Xenograft murine model. Mice were inoculated with at two sites each with 3×10^6 luciferase expresseing OPM2 cells suspended in 50 μL of growth medium and 50 μL of Matrigel basement membrane matrix (Becton Dickenson; Bedford, Mass.). Tumors were injected subcutaneously in the upper and lower flanks of the mice and allowed to establish for 2 weeks. […]
# Tumors were measured using bioluminescence imaging on the Xenogen IVIS 200. […] Quantification of tumor size was performed using the Living Image™ software. […]
Structure (SMILES),"Assay 3: Macrophage NO assay, desired activity [1]","MM proliferation / tumor cell survival, comparison ([2]; OPM1, OPM2, MM.1S, RPMI 8226, U266, trypan blue)","Assay 7: In vitro Multiple Myeloma (MM) assay, desired activity [2]","Assay 8: In vivo Multiple Myeloma (MM) assay, desired activity [3]"
Cc1cc(O)cc2c1[C@]1(C)CCC3C(C)(C)CCC[C@]3(C)[C@H]1C2 (stereo partly shown) [Compound 100],+,inhibits MM proliferation at lower concentrations than AQX-016A,+,+
Cc1cc(O)c(O)c2c1[C@]1(C)CCC3C(C)(C)CCC[C@]3(C)[C@H]1C2 (stereo partly shown) [AQX-016A],+,,+,+
